# Assay results from patent US20170138931A9, “METHOD FOR DIAGNOSIS OF INFLAMMATORY DISEASES USING CALGRANULIN C” (WESTFAELISCHE WILHELMS-UNIVERSITAET MUENSTER, priority 2002, published 2017).
# Marks after values point to notes of the source that are not given here.
# Legend:
# [1] = test system: CALGRANULIN C expressed in synovial tissue; assay: Immunohistochemical analysis of CALGRANULIN C in synovial tissue of psoriatic arthritis patients before and after MTX treatment; assay type: in vivo, human; details: for number of CALGRANULIN C-positive cells per field in synovial membrane, mean score of 10 fields: after MTX treatment, 400-fold magnification
# Procedure: To confirm local expression of CALGRANULIN C at sites of inflammation we performed immunohistochemical studies. Synovial biopsies were performed in 4 patients with psoriatic arthritis before and after MTX-therapy. In addition, biopsies were obtained from 5 patients with psoriatic arthritis not receiving MTX, 2 patients with rheumatoid arthritis, and 2 patients with seronegative arthritis. Two biopsies of patients without synovial inflammation served as negative controls. Cryo-fixed and paraffin-embedded sections were prepared as commonly known in the art. Rabbit anti-human CALGRANULIN C antibody was used to detect CALGRANULIN C expression. Mouse-anti-human CD15, a granulocyte-associated antigen, was used to detect granulocytes in infiltrates. Mouse-anti human CD163 antibody (clone RM3/1, detecting a macrophage-specific scavenger receptor) was employed to characterize macrophages in infiltrates. Species matching control antibodies of irrelevant specificity were used as negative controls. Finally the sections were counterstained with Mayer's haematoxylin. Secondary antibodies and substrates for colour reactions were used as described before. For double-labelling experiments, anti-CALGRANULIN C antibody was followed by anti-CD15 antibody. We used affinity-purified goat-anti-mouse or goat-anti-rabbit secondary antibodies conjugated with either Texas Red or FITC (Dianova, Hamburg, Germany). Fluorescence was analysed using a Zeiss Axioskop connected to an Axiocam camera supply with Axiovision 3.0 for windows (Zeiss, Göttingen, Germany). No cross-reactivity or spillover was detected in control experiments after omitting specific antibodies or replacing them by isotype-matched control antibodies of irrelevant specificity.
# We analysed the effects of MTX treatment on CALGRANULIN C expression in serum of 14 patients with psoriatic arthritis and in synovial membranes of 4 patients. Before treatment, extensive expression of CALGRANULIN C was found in synovial tissue of psoriatic arthritis patients before MTX treatment (cf. FIG. 7G), as described above predominantly in the sub-lining layer and perivascular.
# JRA patients = details: Ravelli et al., 1995; cited from earlier work
# [2] = test system: patients with psoriatic arthritis; assay: Disease activity in patients with psoriatic arthritis after initiation of MTX treatment; assay type: in vivo, human
# Procedure: We investigated 42 patients with chronic inflammatory arthritis. CALGRANULIN C concentrations were analysed in serum and synovial fluid using a sandwich-ELISA as described above. Serum levels were determined from 14 patients (9 male, 5 female; mean age 40 years; range 21-64) suffering from psoriasis arthritis (mean disease duration 14.6±8.6 months), who where treated with the anti-inflammatory drug MTX (mean dose 12.9±4.8 mg). No other medication apart from non-steroidal anti-inflammatory drugs (NSAIDs) were taken. Serum was obtained before and after treatment (mean follow up interval 6.4±1.3 months). In addition, paired serum and synovial fluid samples were available from 28 patients who underwent arthroscopy (8 patients with psoriatic arthritis, 9 patients with rheumatoid arthritis, 11 patients with seronegative arthritis). All patients were examined by the same physician. Clinical status of patients was documented by recording early morning stiffness, pain score, Ritchie articular index (RI) (Ritchie et al., 1968, QJ Med 37: 393-406) and number of swollen joint count (SJC). […] Patients with seronegative arthritis were in between these groups. In addition to the clinical status, CRP, ESR, anti nuclear antibodies (ANA), and rheumatoid factor (RF) were documented.
# Response to therapy was paralleled by a marked decrease of CALGRANULIN C serum levels after MTX treatment (mean 240 ng/ml prior versus 100 ng/ml after MTX; cf. FIG. 8). CALGRANULIN C levels correlated well with improving EMS, pain score, RI and SJC.
# [3] = test system: CALGRANULIN C serum levels; assay: Serum CALGRANULIN C by sandwich ELISA in psoriatic arthritis patients treated with MTX; assay type: in vivo, human; details: 14 psoriatic arthritis patients, after MTX; 240 ng/ml prior
# Procedure: (§1) Concentrations of CALGRANULIN C in the serum of patients were determined by a double sandwich enzyme linked immunosorbent assay (ELISA) system. Flat-bottom 96-well microtiter plates (Maxisorp; Nunc, Roskilde, Denmark) were coated at 50 μl/well with 10 ng/well of anti-CALGRANULIN C in 0.1 M sodium carbonate buffer, pH 9.6; incubated for 16 h at 4° C.; washed three times with phosphate buffer saline and 0.1% Tween 20, pH 7.4 (wash buffer); and blocked with wash buffer containing 0.25% bovine serum albumin (block buffer) for 1 h at 37° C. Plates were washed once with wash buffer and 50 μl of samples with varying dilutions in block buffer were added for 1 h at room temperature. […] Absorbency at 405 nm was measured with ELISA-reader (MRX microplate reader, Dynatech Laboratories, St Peter Port, Guernsey, UK).
# We investigated 42 patients with chronic inflammatory arthritis. CALGRANULIN C concentrations were analysed in serum and synovial fluid using a sandwich-ELISA as described above. Serum levels were determined from 14 patients (9 male, 5 female; mean age 40 years; range 21-64) suffering from psoriasis arthritis (mean disease duration 14.6±8.6 months), who where treated with the anti-inflammatory drug MTX (mean dose 12.9±4.8 mg). […]
# We analysed the effects of MTX treatment on CALGRANULIN C expression in serum of 14 patients with psoriatic arthritis and in synovial membranes of 4 patients. […]
# [4] = test system: Human mixed donor neutrophils; assay: CALGRANULIN C secretion by neutrophils stimulated with TNF alpha in vitro; assay type: cell-based
# Procedure: Human mixed donor neutrophils were isolated from buffy coats (German red cross, Munster, Germany) as described before (Vogl et al., 1999, J Biol Chem 274: 25291-25296). Briefly, centrifugation through Ficoll-Hypague (Biocoll, Biochrom, Berlin, Germany) was performed to separate neutrophils from mononuclear cells and platelets. Erythrocytes were separated by dextran sedimentation. The remaining cells were washed twice in PBS. Purity of cells was above 95%, as determined by morphological analysis of Trypan-blue stained cells. Neutrophils were resuspended at a final concentration of 1×10^7 cells/ml in serum free RPMI medium (Biochrom, Berlin, Germany) supplemented with 1% glutamine, 1% non-essential amino acids, and 1% penicillin/streptomycin. […] Stimulated and non-stimulated cells were incubated for 15 or 30 minutes at 37° C., respectively. Finally, neutrophils were pelleted at 500×g for 5 minutes at 4° C. and the supernatant was saved for analyses of CALGRANULIN C with sandwich-ELISA. Cell lysis was assessed by analysing activity of lactate dehydrogenase (LDH) using its capacity to convert NADH to NAD^+ and measuring the decrease of absorbency of NADH at 340 nm. Protease inhibitors were added to prevent proteolytic degradation.
# [5] = test system: CALGRANULIN C serum levels; assay: CALGRANULIN C serum levels in Crohn's disease patients treated with infliximab; assay type: in vivo, human; details: 3 Crohn's disease patients; before, 2 weeks and 4 weeks after infliximab
# Procedure: FIG. 11: CALGRANULIN C serum levels in patients with Crohn's disease due to infliximab treatment. Individual courses of CALGRANULIN C and CDAI in 3 patients before, 2 weeks, and 4 weeks after treatment with infliximab (a-c).
# as §1, with “temperature. The ELISA was calibrated with purified CALGRANULIN C in concentrations ranging from 0.016 to 125 ng/ml.” for “temperature.”
# Crohn's disease patients (n=40), ulcerative colitis patients (n=34) and healthy controls (n=30) were investigated: CALGRANULIN C protein serum levels were measured as described above using ELISA. In parallel, CRP and ESR were determined. […]
# [6] = test system: interaction of CALGRANULIN C with RAGE; details: blocking the CALGRANULIN C-RAGE interaction; Hofmann et al. 1999, Schmidt et al. 2001; cited from earlier work
# [7] = Stability of CALGRANULIN C protein; assay type: physicochemical; details: at room temperature or after multiple thawing and freezing cycles
molecule,measurement,setting,value
"CN(Cc1cnc2nc(N)nc(N)c2n1)c1ccc(C(=O)N[C@@H](CCC(=O)O)C(=O)O)cc1 [MTX, methotrexat]","number of CALGRANULIN C-positive cells per field in synovial membrane, mean score of 10 fields","[1]; Patient 1, psoriatic arthritis, before MTX 23",3
same,"number of CALGRANULIN C-positive cells per field in synovial membrane, mean score of 10 fields","[1]; Patient 2, psoriatic arthritis, before MTX 12",<1
same,"number of CALGRANULIN C-positive cells per field in synovial membrane, mean score of 10 fields","[1]; Patient 3, psoriatic arthritis, before MTX 17",<1
same,"number of CALGRANULIN C-positive cells per field in synovial membrane, mean score of 10 fields","[1]; Patient 4, psoriatic arthritis, before MTX 21",<1
same,CALGRANULIN C expression in synovial biopsies,"[1]; psoriatic arthritis patients after effective MTX treatment, extensive expression before",almost undetectable
same,JRA patients who relapse after withdrawal of treatment,JRA patients,about 50%
same,CRP,"[2]; before MTX 4.2, p < 0.05",2.5* mg/dl
same,Pain,"[2]; before MTX 5.3, p < 0.05",3.2* points
same,RI (Ritchie articular index),"[2]; before MTX 6.3, p < 0.01",1.9** points
same,SJC (swollen joint count),"[2]; before MTX 9.6, p < 0.01",3.3** No.
same,ESR,"[2]; before MTX 28, p < 0.05",12* mm/h
same,EMS (early morning stiffness),"[2]; before MTX 76, p < 0.01",25** min
same,mean CALGRANULIN C serum level,[3],100 ng/mL
TNF alpha,CALGRANULIN C secretion into supernatant,"[4]; TNF alpha 2 or 5 ng/ml, 15 or 30 minutes at 37° C., unstimulated cells between 5 and 10 ng/ml",time- and dose-dependent increase
same,viability and cell lysis tested by LDH activity,[4]; stimulated vs non-stimulated neutrophils,no differences
"infliximab: TNF blocking agents such as anti-TNF antibodies, e.g. infliximab",CALGRANULIN C serum levels after treatment,[5],decreased rapidly
"sRAGE: soluble RAGE, receptor for advanced glycation end products, used as blocking agent in mouse models (protein, UniProt Q62151 23-340, looked up, extracellular domain) extracellular domain: GQNITARIGEPLVLSCKGAPKKPPQQLEWKLNTGRTEAWKVLSPQGGPWDSVARILPNGSLLLPATGIVDEGTFRCRATNRRGKEVKSNYRVRVYQIPGKPEIVDPASELTASVPNKVGTCVSEGSYPAGTLSWHLDGKLLIPDGKETLVKEETRRHPETGLFTLRSELTVIPTQGGTHPTFSCSFSLGLPRRRPLNTAPIQLRVREPGPPEGIQLLVEPEGGIVAPGGTVTLTCAISAQPPPQVHWIKDGAPLPLAPSPVLLLPEVGHEDEGTYSCVATHPSHGPQESPPVSIRVTETGDEGPAEGSVGESGLGTLA",effect in mouse models of inflammation including arthritis,[6],clear anti-inflammatory effects
"CALGRANULIN C: small protein of 92 amino acids which belongs to the family of calcium-binding S100 proteins; SEQ ID NO:2 (protein, homo sapiens) MTKLEEHLEGIVNIFHQYSVRKGHFDTLSKGELKQLLTKELANTIKNIKDKAVIDEIFQGLDANQDEQVDFQEFISLVAIALKAAHYHTHKE",stability of the protein,[7],extremely stable
